Data as given in patent US20250179057A1, “MEK IMMUNE ONCOLOGY INHIBITORS AND THERAPEUTIC USES THEREOF” (Immuneering Corporation, priority 2022, published 2025).
Where a name gives a salt, the structure may show the parent alone.

Columns and labels:
human hepatocytes = assay: Hepatocyte stability, human; format: in vitro ADME; details: 2 μM, 0.5 million cells/ml; for % Remaining At T120 / T1/2: 120 min
Experimental: In this study, human, cynomolgus monkey, beagle dog, wistar hannover rat, and balb/c mouse hepatocyle stability was determined.

[1] = Plasma stability, cynomolgus monkey plasma (K2-EDTA); format: in vitro ADME; details: for % Remaining at T120 / T1/2: 2 μM, anti-coagulant K2-EDTA; for % Remaining at T120: 120 min; for half-life at 2 μM: plasma (K2EDTA), pH 7.4, anti-coagulant K2-EDTA
Experimental: (§1) Individual stock solutions of propantheline and lovastatin were prepared at 10 mM in DMSO and were further diluted to 2 mM with DMSO.
(§2) Frozen matrices (Balb/c mouse, Wistar Han rat, Beagle dog, and human plasma containing K2EDTA as anti-coagulant) were thawed and centrifuged at 3100 rpm for 10 minutes at 4° C. to remove particulates. The lipid layer was then removed, and the supernatant was transferred to a new tube without disturbing the pellet. After the matrices were incubated at 37° C. for at least 10 minutes, the pH of each matrix was adjusted to pH 7.4, using 10% phosphoric acid or 1N sodium hydroxide as necessary. Test and control article stock solutions were spiked (2 μL) into matrix (1.998 mL) and mixed to final assay concentration of […]. Duplicate 30-μL aliquots of spiked plasma were transferred to matrix tubes in 96-well plate immediately after spiking for timepoints of 0, 30, 60, 120, 240, and 360 minutes. These tubes were then incubated at 37° C. with shaking and at each timepoint, the corresponding tubes containing samples were quenched with 180 μL of cold acetonitrile containing the internal standards. The quenched samples were vortex-mixed briefly and stored refrigerated. After the final time point (360 minutes), the plates with all quenched samples were vortex-mixed for 10 minutes and then centrifuged at 3100 rpm for 10 minutes at 4° C. to sediment the precipitated protein. The supernatant (50 μL) was transferred to a clean 96-well plate and diluted with 100 μL of water. The plates were stored refrigerated until analysis.
(§3) Data Analysis: Peak area ratios for IS-normalized test article and control article counts were used to calculate the percent remaining relative to the time zero (T0) value. As appropriate, results were plotted and further analyzed to calculate half-life (T1/2) values.
(§4) Mean peak area ratios were used to calculate the % remaining relative to the T0 value:
(§5) In this study, human, cynomolgus monkey, beagle dog, wistar hannover rat, and balb/c plasma stability was determined. Table 28 describes the results of the human plasma stability at 2 μM concentration and anti-coagulant K2-EDTA from 10 to 120 min. Table 29 describes the results of the cynomolgus monkey plasma stability at 2 μM concentration and anti-coagulant K2-EDTA. Table 30 describes the results of the beagle dog plasma stability at 2 μM concentration and anti-coagulant K2-EDTA. Table 31 describes the results of the wistar hannover rat plasma stability at 2 μM concentration and anti-coagulant K2-EDTA. Table 32 describes the results of the balb/c plasma stability at 2 μM concentration and anti-coagulant K2-EDTA.

Caco-2 cells = assay: Caco-2 bidirectional permeability (absorption & efflux); details: Example 47
CYP2C9 = CYP2C9 (Homo sapiens, UniProt P11712); assay: CYP450 panel inhibition in human liver microsomes, 2C9 (diclofenac); details: for inhibition at 30 min, 10 µM: microsomes; for CYP-2C9 (Diclofenac) mean percentage CYP inhibition: human liver microsomes, substrate diclofenac
CYP2C9, sequence (P11712 whole entry): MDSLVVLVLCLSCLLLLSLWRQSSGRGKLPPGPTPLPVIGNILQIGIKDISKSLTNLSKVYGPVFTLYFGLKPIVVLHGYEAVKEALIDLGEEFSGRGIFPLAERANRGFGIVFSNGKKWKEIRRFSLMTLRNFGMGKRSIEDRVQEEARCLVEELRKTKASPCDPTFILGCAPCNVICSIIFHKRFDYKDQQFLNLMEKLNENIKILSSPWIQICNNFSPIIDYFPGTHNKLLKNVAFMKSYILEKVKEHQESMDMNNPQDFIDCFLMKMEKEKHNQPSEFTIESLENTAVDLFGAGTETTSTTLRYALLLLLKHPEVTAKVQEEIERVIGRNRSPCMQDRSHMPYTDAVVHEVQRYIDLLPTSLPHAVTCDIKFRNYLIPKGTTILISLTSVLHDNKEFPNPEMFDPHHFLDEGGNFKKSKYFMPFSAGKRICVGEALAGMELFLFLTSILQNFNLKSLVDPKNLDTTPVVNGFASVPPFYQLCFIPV
Description: The quenched samples were stored refrigerated.

[2] = Plasma stability, beagle dog plasma (K2EDTA); format: in vitro ADME; details: 2 μM; for % Remaining at T120 / half-life at 2 μM / T1/2: beagle dog plasma, anti-coagulant K2-EDTA; for % Remaining at T120: 120 min; for half-life at 2 μM: read-out: T1/2
Experimental: as §1, §2, §3, §4, §5

Beagle Dog (% Reamining @2 hour) ([2]; plasma, 2 hour) [%] | SMILES | % Remaining At T120 (human hepatocytes) [%] | % Remaining at T120 [1] [%] | half-life at 2 μM [1] [h] | A − B Permeability Ranking (Caco-2 cells) | inhibition at 30 min, 10 µM (CYP2C9; human, pH 7.4) [%] | % Remaining at T120 [2] [%] | half-life at 2 μM ([2]; pH 7.4) [h] | CLint (L/hr/kg) (human hepatocytes) [L/h/kg] | CLint (mL/min/kg) (human hepatocytes) | T1/2 [1] [h] | Mean Efflux Ratio (Caco-2 cells) | Mean Papp A − B (10^−6 cm/s) (Caco-2 cells) | Mean Papp B − A (10^−6 cm/s) (Caco-2 cells) | CYP-2C9 (Diclofenac) mean percentage CYP inhibition (CYP2C9; 10 μM) [%] | T1/2 [2] [h] | CYP2C9 inhibition (CYP2C9; human, 30 min, 10 μM, pH 7.4) [%] | Beagle Dog (% Reamining @2 hour) ([2]; beagle, dog, 2 h, pH 7.4) [%] | T1/2 (human hepatocytes) [h]
 | CCN(C)Cc1c(Cc2cccc(NS(=O)(=O)NC)c2Cl)c(=O)oc2cc(OC(=O)N(C)C)ccc12 [Compound 245, 3-(2-chloro-3-((N-methylsulfamoyl)amino)benzyl)-4-((ethyl(methyl)amino)methyl)-2-oxo-2H-chromen-7-yl dimethylcarbamate] | 13.9 | 96.5 | 23 | Higher | 25.8 | 104.1 | > 2 |  |  |  |  |  |  |  |  |  |  | 
 | CNS(=O)(=O)Nc1cccc(Cc2c(CN(C)C)c3ccc(OC(=O)N(C)C)cc3oc2=O)c1Cl [Compound 274, 3-(2-chloro-3-((N-methylsulfamoyl)amino)benzyl)-4-((dimethylamino)methyl)-2-oxo-2H-chromen-7-yl dimethylcarbamate] | 47.5 | 104.5 | > 2 | Higher | 17.1 | 100.5 | > 2 |  |  |  |  |  |  |  |  |  |  | 
 | CNS(=O)(=O)Nc1cccc(Cc2c(CN3CCNCC3)c3ccc(OC(=O)N(C)C)cc3oc2=O)c1Cl [Compound 246, 3-(2-chloro-3-((N-methylsulfamoyl)amino)benzyl)-2-oxo-4-(piperazin-1-ylmethyl)-2H-chromen-7-yl dimethylcarbamate hydrochloride] | 95.3 | 104.5 | > 2 | Higher | 19.4 | 100.2 | 60.5 |  |  |  |  |  |  |  |  |  |  | 
 | CNS(=O)(=O)Nc1cccc(Cc2c(CN(C)C)c3cc(F)c(OC(=O)N(C)C)cc3oc2=O)c1F [Compound 25] | 99.9 | 107.3 |  | Higher |  | 90.1 |  | 0.00218 | 0.0363 | >2 | 3.82 | 4.39 10^−6 cm/s | 16.7 10^−6 cm/s | 28.0 | 9.88 |  |  | 
 | CCN(C)Cc1c(Cc2cccc(NS(=O)(=O)NC)c2F)c(=O)oc2cc(OC(=O)N(C)C)c(F)cc12 [Compound 238] | 27.3 | 101.1 | > 2 | Higher |  | 93.8 | 23.2 |  |  |  |  |  |  |  |  |  |  | 
 | Cn1cnc2c(F)c(Nc3ccc(Br)cc3Cl)c(C(=O)NOCCO)cc21 [Reference-1, Selumetinib] |  |  |  |  |  |  |  |  |  |  |  |  |  |  |  | 14.1 | 100.4 | 
 | CNS(=O)(=O)Nc1cccc(Cc2c(CN3CCNCC3)c3cc(Cl)c(OC(=O)N(C)C)cc3oc2=O)c1Cl [Compound 256, 6-chloro-3-(2-chloro-3-((N-methylsulfamoyl)amino)benzyl)-2-oxo-4-(piperazin-1-ylmethyl)-2H-chromen-7-yl dimethylcarbamate hydrochloride] | 91.4 | 95.0 | 28.5 | Higher | 36.5 | 99.4 | > 2 |  |  |  |  |  |  |  |  |  |  | 
 | CNS(=O)(=O)Nc1nccc(Cc2c(CN(C)C)c3ccc(OC(=O)N(C)C)cc3oc2=O)c1F [Compound 124] | 70.3 | 95.9 |  | Higher |  | 101.5 |  | 0.953 | 15.9 | 21.32 | 5.12 | 3.51 10^−6 cm/s | 18.0 10^−6 cm/s | 65.5 | 94.15 |  |  | 3.93
 | CCS(=O)(=O)Nc1cccc(Cc2c(CN3CCNCC3)c3cc(Cl)c(OC(=O)N(C)C)cc3oc2=O)c1Cl [Compound 257, 6-chloro-3-(2-chloro-3-(ethylsulfonamido)benzyl)-2-oxo-4-(piperazin-1-ylmethyl)-2H-chromen-7-yl dimethylcarbamate hydrochloride] | 89.1 | 98.0 | 20.1 | Higher | 53.7 | 100.9 | > 2 |  |  |  |  |  |  |  |  |  |  | 
 | CCCS(=O)(=O)Nc1cccc(Cc2c(CN3CCNCC3)c3cc(Cl)c(OC(=O)N(C)C)cc3oc2=O)c1F [Compound 167] | 53.8 | 117.3 |  | Lower |  | 106.2 |  | 1.67 | 27.9 | >2 | 23.2 | 0.845 10^−6 cm/s | 19.6 10^−6 cm/s | 71.8 | >2 |  |  | 2.23
 | CNS(=O)(=O)Nc1cccc(Cc2c(CN(C)C)c3ccc(OC(=O)N(C)C)cc3oc2=O)c1F [Compound 9] | 48.9 | 110.4 |  | Higher |  | 100.5 |  | 1.93 | 32.2 | >2 | 1.32 | 16.4 10^−6 cm/s | 21.7 10^−6 cm/s | 13.4 | >2 |  |  | 1.93
99.8 | CNS(=O)(=O)Nc1nccc(Cc2c(C)c3ccc(Oc4ncccn4)cc3oc2=O)c1F [Reference-2, reference compound] |  |  |  |  |  |  |  |  |  |  |  |  |  |  |  |  |  | 
 | CCS(=O)(=O)Nc1cccc(Cc2c(CN(C)C)c3ccc(OC(=O)N(C)C)cc3oc2=O)c1F [Compound 120] | 47.4 | 107.3 |  | Higher |  | 100.9 |  | 2.02 | 33.6 | >2 | 0.567 | 21.9 10^−6 cm/s | 12.4 10^−6 cm/s | 11.1 | >2 |  |  | 1.85
 | CNS(=O)(=O)Nc1cccc(Cc2c(CN3CCNCC3)c3cc(F)c(OC(=O)N(C)C)cc3oc2=O)c1F [Compound 134] | 94.7 | 93.0 |  | Higher |  | 89.9 |  | 0.148 | 2.46 | 15.8 | 2.01 | 3.99 10^−6 cm/s | 8.08 10^−6 cm/s | 20.5 | 10.4 |  |  | 25.35
